The record followed here is paper doi:10.1101/2024.04.09.588698v1 (biorxiv, 2024).

The target of assay [1] is T1, Htc10-LBD (Vreelandella titanicae, UniProt L9UCI1).
T1 sequence (L9UCI1 48-325): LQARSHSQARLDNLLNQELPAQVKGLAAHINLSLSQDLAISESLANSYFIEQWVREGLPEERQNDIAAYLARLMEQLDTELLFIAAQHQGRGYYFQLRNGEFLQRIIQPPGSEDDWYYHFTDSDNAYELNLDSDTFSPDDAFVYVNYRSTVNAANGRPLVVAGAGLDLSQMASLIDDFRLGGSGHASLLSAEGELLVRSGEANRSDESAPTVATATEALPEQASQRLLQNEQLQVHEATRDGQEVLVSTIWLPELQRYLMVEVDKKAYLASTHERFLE
As to conditions: Biolog plate screen, est. 3-6 mM; binder.

Assay [2] deals with T1, Htc10-LBD. Kind of assay: biochemical. The conditions noted are these: read-out: ΔTm (ºC) 10 mM solution.
For assay [3], the target named is T1, Htc10-LBD. Kind of assay: isothermal titration calorimetry. It counts as binding.
For assay [4], the target named is T1, Htc10-LBD. As to the kind of experiment: biochemical.
The target of assay [5] is T2, Htc10-LBD (Vreelandella titanicae, UniProt L9UCI1, D179A/N177A/Y141F).
T2 sequence (L9UCI1 48-325 Y141F/N177A/D179A): T1 sequence (L9UCI1 48-325) with Y94F, N130A, D132A
Kind of assay: isothermal titration calorimetry. Type of assay: binding.

Assay [6] concerns the target T3, Htc10-LBD (Vreelandella titanicae, UniProt L9UCI1, Y141F).
T3 sequence (L9UCI1 48-325 Y141F): T1 sequence (L9UCI1 48-325) with Y94F
Kind of assay: isothermal titration calorimetry. It counts as binding. Background: In ITC the heat of successive injections is recorded.

SMILES strings stand for the structures. Changes are numbered by the printed parent chain.

`O=c1[nH]cnc2c1ncn2[C@H]1C[C@H](O)[C@@H](CO)O1` [2-deoxy-inosine]: the “ΔTm (ºC) Biolog plates” value at Htc10-LBD [1] came out at 6.5 degC.

The term ΔTm denotes the change in melting temperature against a reference sample. Take `Nc1nc2c(ncn2[C@@H]2O[C@H](CO)[C@@H](O)[C@H]2O)c(=O)[nH]1` [Guanosine]: the “ΔTm (ºC) Biolog plates” value on Htc10-LBD [1] was 2.5 degC. Besides, the ΔTm at 10000 µM at Htc10-LBD [2] was 0.5 °C.

As for `O=c1[nH]cnc2c1ncn2[C@@H]1O[C@H](CO)[C@@H](O)[C@H]1O` [Inosine], the ΔTm at 10000 µM on Htc10-LBD [2] was 3 °C.

Regarding `Cc1cn([C@H]2C[C@H](O)[C@@H](CO)O2)c(=O)[nH]c1=O` [Thymidine], the “ΔTm (ºC) Biolog plates” value on Htc10-LBD [1] was determined as 2.0 degC. On Htc10-LBD [2], the ΔTm at 10000 µM is 0 °C.

For the molecule `Cc1c[nH]c(=O)[nH]c1=O` [Thymine], the “ΔTm (ºC) Biolog plates” value on Htc10-LBD [1] was found to be 2.0 degC. Further, the ΔTm at 10000 µM at Htc10-LBD [2] came out at 1.7 °C.

Regarding `O=c1cc[nH]c(=O)[nH]1` [Uracil], the ΔTm at 10000 µM on Htc10-LBD [2] is 3 °C.

Regarding `O=c1[nH]c(=O)c2nc[nH]c2[nH]1` [Xanthine], on Htc10-LBD [1], the “ΔTm (ºC) Biolog plates” value came to 2.5 degC. For the same molecule, on Htc10-LBD [2], the ΔTm at 10000 µM is -8 °C.

By Kd is commonly meant the constant that tells how readily two partners part at equilibrium. For `Nc1nc2nc[nH]c2c(=O)[nH]1` [guanine], the figures for the Kd on Htc10-LBD [3], at Htc10-LBD [5] and at Htc10-LBD [6] were 7 ± 0.6 µM, 118 ± 9 µM and 25 ± 2 µM, respectively. Further, the ΔTm at 600 µM on Htc10-LBD [4] (read-out: ΔTm (ºC) gua) amounted to 5.2 °C. The ΔTm at 10000 µM on Htc10-LBD [2] worked out at 6 °C.

Regarding `O=c1[nH]cnc2nc[nH]c12` [hypoxanthine], the Kd at Htc10-LBD [3] worked out at 2.5 ± 0.3 µM; at Htc10-LBD [5], 140 ± 9 µM; at Htc10-LBD [6], 13.9 ± 0.9 µM. In addition, on Htc10-LBD [1], the “ΔTm (ºC) Biolog plates” value is reported as 8.0 degC. Moreover, the ΔTm at 500 µM on Htc10-LBD [4] (read-out: ΔTm (ºC) hyp) was 10.6 °C. Moreover, at Htc10-LBD [2], the ΔTm at 10000 µM is 16 °C.
